{"source": "patent US12508270B2", "about": "“Treatment of behavioral impairment in developmental and epileptic encephalopathy” (Harmony Biosciences Management, Inc., priority 2019, dated 2025)", "test_system": "child and adolescent epilepsy patients with developmental and epileptic encephalopathies (DEE)", "assay": "Qualitative caregiver feedback at Week 26", "format": "in vivo, human", "settings": "transdermal CBD", "source_text": "Qualitative assessment of improvement, worsening, or no change for the patient and family, such as but not limited to, daily activities, school attendance and alertness. In the examples, clinicians were asked to capture qualitative caregiver feedback at Week 26 with the following questions asked: (1) “Has anything improved for [patient name] and your family since [patient name] has been using the gel?”; (2) “Has anything got worse since for [patient name] and your family since [patient name] has been using the gel?”; and (3) “Let me just ask about a few specific things: Daily activities e.g. school attendance? If so how? Alertness? If so how?”.\nParents/caregivers were instructed to capture seizure frequency and type, and skin irritation scores, within daily diaries. Parents/caregivers also completed: • (1) The University of Washington Caregiver Stress Scale at Day 1, Week 14, and Week 26. • (2) Epilepsy and Learning Disabilities Quality of Life scale (ELDQOL—modified) at Day 1, Week 14 and Week 26. • (3) Sleep Disturbance Scale for Children (SDSC) at Day 1, Week 14 and Week 26. • (4) Vineland Adaptive Behavior Scale-3 (VABS-3) at Day 1 and Week 26. • (5) Parents/caregivers also completed a daily Likert-type “good day/bad day” questionnaire. • (6) Qualitative Caregiver Feedback at Week 26. Objectives […]", "data": [{"compound": "C=C(C)C1CCC(C)=CC1c1c(O)cc(CCCCC)cc1O", "note": "(stereo not shown) [CBD, 2-[3-methyl-6-(1-methylethenyl)-2-cyclohexen-1-yl]-5-pentyl-1,3-benzenediol]", "values": [{"measurement": "qualitative assessments by caregivers", "result": "improved many behavioral problems"}]}]}
